Test results: patent US11766470B2, “Manufacture, formulation and dosing of apraglutide” (VectivBio AG, priority 2020, dated 2023)
Read-outs that look alike come from different tables or passages of the source. Square brackets hold non-standard residues; d marks the D form. Peptide text beside a SMILES is read from it. ξ: configuration not given here. Ile(3ξ) = CCC(C)[C@H](N)C(=O)O; Thr(3ξ) = CC(O)[C@H](N)C(=O)O; Nle = CCCC[C@H](N)C(=O)O

Legend:
[1] = system: anti-apraglutide antibodies; experiment: Anti-apraglutide antibodies ELISA in serum, Phase 2 metabolic balance trial (Example 6); type: in vivo, human
Method: Blood samples for analysis of the plasma concentration of apraglutide and plasma concentration of fasting L-citrulline, a marker of enterocyte mass, were collected at baseline, during first and second injection (pre-dose and at sequential timepoints), four days after first injection and at the end of treatment. Blood sampling for apraglutide pharmacokinetics was also performed after the fourth and last injection covering 96 hours. […] Blood samples for anti-apraglutide antibodies were collected at baseline, at the end of treatment and at the 4-6 weeks follow-up visit. All eight patients tested negative for anti-apraglutide antibodies at baseline.
A fully validated ELISA method was used for the detection of anti-apraglutide antibodies in serum, following a three-tiered assay approach. In the first tier, anti-apraglutide antibodies present in samples and controls bonded to apraglutide immobilized on a microtiter plate. The bound anti-apraglutide antibodies were then detected with protein A/G and protein L. A sample with a signal above the validated screening cut-point was considered potentially positive and was then tested in the second tier, the confirmatory assay. For this, samples were pre-treated with an excess of apraglutide prior to testing them in the assay described above. […] Titers were then determined by serial dilution of all confirmed positive samples.

hGLP-2 receptor = target: T1, hGLP-2 receptor (Homo sapiens, UniProt O95838); experiment: hGLP-2 receptor transcriptional reporter gene assay (cAMP-responsive luciferase) in HEK-293 cells (Example 2); type: cell-based
T1 construct: expressed in transfected cells; host or cells: HEK-293 (human embryonic kidney), transient transfection
T1 sequence (O95838 1-553): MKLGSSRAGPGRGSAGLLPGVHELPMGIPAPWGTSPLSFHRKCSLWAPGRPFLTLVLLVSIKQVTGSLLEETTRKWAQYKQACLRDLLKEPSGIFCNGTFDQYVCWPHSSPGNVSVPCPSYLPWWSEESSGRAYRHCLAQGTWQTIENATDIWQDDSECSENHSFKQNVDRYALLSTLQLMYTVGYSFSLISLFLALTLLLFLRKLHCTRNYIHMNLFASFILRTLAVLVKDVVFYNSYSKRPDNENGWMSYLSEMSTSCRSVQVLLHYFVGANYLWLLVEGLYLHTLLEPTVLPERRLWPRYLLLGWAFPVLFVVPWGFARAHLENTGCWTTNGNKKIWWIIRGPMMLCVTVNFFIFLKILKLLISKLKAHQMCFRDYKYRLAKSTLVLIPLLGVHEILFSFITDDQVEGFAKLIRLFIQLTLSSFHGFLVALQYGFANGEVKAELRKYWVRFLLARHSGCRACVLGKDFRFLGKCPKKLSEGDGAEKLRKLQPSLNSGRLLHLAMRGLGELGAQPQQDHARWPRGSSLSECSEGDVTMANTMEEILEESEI
From the text: To determine activities of GLP-2 agonists of the present disclosure on the hGLP-2 receptor, a transcriptional reporter gene assay is used. Two constructs are transiently transfected into a human embryonic kidney cell line (HEK-293): an hGLP-2 receptor expression DNA construct and a reporter DNA construct containing intracellular cAMP-responsive promoter elements regulating expression of firefly luciferase. (See for example HimmLer et al., J. Recept. Res., (1993), 13, […] for further guidance on this assay.)
Cells are exposed for 5 hours to serial dilutions of compounds diluted half-log per dose. After exposure to compounds, cells are lysed, luciferase activity is determined, and compound efficacies and EC50 values are determined by non-linear regression analysis. hGLP-2, a naturally occurring 33-amino acid peptide ligand, is used as an internal control in each experiment.

healthy adult volunteers = experiment: Safety in multiple dose study in healthy volunteers; type: in vivo, human; settings: 1, 5 or 10 mg, 6 weekly SC doses
Method: The pharmacokinetic/pharmacodynamic (PK/PD) relationship between apraglutide, a novel long-acting GLP-2 analog in development for short bowel syndrome, and citrulline was evaluated in a randomized, double-blind, parallel arm, placebo-controlled, multiple dose study. 23 healthy adult volunteers received 6 weekly subcutaneous doses of apraglutide (1, 5, or 10 mg) or placebo and were followed for a further 6 weeks after the last dose. Blood collections were controlled for diet, lifestyle, and diurnal effects.

[2] = human, in vivo
Method: (§1) 23 healthy adult volunteers received 6 weekly subcutaneous doses of apraglutide (1, 5, or 10 mg) or placebo and were followed for a further 6 weeks after the last dose. Blood collections were controlled for diet, lifestyle, and diurnal effects. […] PK data underwent non-compartmental analysis and PD data were analyzed by ANCOVA.
(§2) As with citrulline, a statistical steady-state analysis per dose level was performed for apraglutide using Helmert's approach.

[3] = human, sc, 5 mg
From the text: Plasma citrulline was used as a pharmacodynamic (“PD”) marker to describe the effect of apraglutide. Similar to the pharmacokinetic (“PK”) model development, the PK/PD model was developed for the healthy individuals from studies GLY-101-2015 and TA799-002 only. For development of the PD model, the PD observations were fitted together with the PK observations using the final PK model with its structure, residual error-, covariates- and random effects-models. The starting model was a turnover model where plasma citrulline was constantly synthesized and degraded with the synthesis rate ksyn and the degradation rate kdeg. Plasma apraglutide stimulated citrulline synthesis via a sigmoid Emax relationship with the baseline citrulline level R0, the half-maximal effect at the concentration EC50, the maximal effect Emax, and a Hill coefficient gamma. It was assumed that citrulline turnover was in steady state such that citrulline synthesis was determined solely by citrulline baseline and degradation. The population PK/PD of plasma apraglutide was established with data from two studies in healthy volunteers and two studies with SBS patients that tested doses between 2.5 and 50 mg SC.
The population PK/PD model was used to predict plasma apraglutide exposure and plasma citrulline trough concentration-time profiles with and without inter-individual variability for individuals with body weights between 40 and 120 kg receiving weekly doses of 2.5, 5, or 10 mg SC. […] Apraglutide exposure for body weights between 40 and 120 kg and apraglutide SC doses of 2.5, 5, or 10 mg was compared to post-hoc exposure estimates of SBS patients. Bracketing at a body weight of 50 kg between doses of 2.5 and 5 mg was simulated.
Plasma citrulline was described by a turnover model and maximal PD effect model.

clinical = settings: human, in vivo; for half-life: t1/2, arithmetic mean ± SD; for CL/F: sc
Method: as §1, §2

For `CCCC[C@H](NC(=O)[C@H](CCC(=O)O)NC(=O)[C@H](CC(=O)O)NC(=O)[C@H](CO)NC(=O)[C@H](Cc1ccccc1)NC(=O)[C@H](CO)NC(=O)CNC(=O)[C@H](CC(=O)O)NC(=O)CNC(=O)[C@@H](N)Cc1c[nH]cn1)C(=O)N[C@H](Cc1ccccc1)C(=O)N[C@H](C(=O)N[C@H](C(=O)N[C@@H](CC(C)C)C(=O)N[C@@H](CC(=O)O)C(=O)N[C@@H](CC(C)C)C(=O)N[C@@H](CC(C)C)C(=O)N[C@@H](C)C(=O)N[C@@H](C)C(=O)N[C@@H](CCCNC(=N)N)C(=O)N[C@@H](CC(=O)O)C(=O)N[C@@H](Cc1ccccc1)C(=O)N[C@H](C(=O)N[C@@H](CC(N)=O)C(=O)N[C@@H](Cc1c[nH]c2ccccc12)C(=O)N[C@@H](CC(C)C)C(=O)N[C@H](C(=O)N[C@@H](CCC(N)=O)C(=O)N[C@H](C(=O)N[C@@H](CCCCN)C(=O)N[C@H](C(=O)N[C@H](C(=O)N[C@@H](CC(=O)O)C(N)=O)C(C)O)C(C)CC)C(C)O)C(C)CC)C(C)CC)C(C)CC)C(C)O` (stereo partly drawn) [apraglutide, L-histidyl-glycyl-L-aspartyl-glycyl-L-seryl-L-phenylalanyl-L-seryl-L-aspartyl-L-glutamyl-L-norleucyl-D-phenylalanyl-L-threonyl-Lisoleucyl-L-leucyl-L-aspartyl-L-leucyl-L-leucyl-L-alanyl-L-alanyl-L-arginyl-L-aspartyl-L-phenylalanyl-L-isoleucyl-L-asparaginyl-Ltryptophanyl-L-leucyl-L-isoleucyl-L-glutaminyl-L-threonyl-L-lysyl-L-isoleucyl-L-threonyl-Laspartic acid amide] (H-HGDGSFSDE[Nle][dF][Thr(3ξ)][Ile(3ξ)]LDLLAARDF[Ile(3ξ)]NWL[Ile(3ξ)]Q[Thr(3ξ)]K[Ile(3ξ)][Thr(3ξ)]D-NH2), the “Patients who developed anti-apraglutide antibodies” value ([1]; during the trial, patient with SBS-IF) was “One”, the “Effects of anti-apraglutide antibodies on PK profile, pharmacodynamic response, adverse events” value ([1]; in vivo) was “No effects of anti-apraglutide antibodies were detected” and the “Agonist activity, potency and selectivity at the GLP-2 receptor, in words” value (hGLP-2 receptor) was “selective, full agonist of the GLP-2 receptor with potency and selectivity comparable to native GLP-2”. For the same molecule, the “Safety and tolerability in words” value (healthy adult volunteers) was “safe and well-tolerated with no serious AEs”, the “Quantifiable concentration in the last pharmacokinetic sample (2 weeks after last dose)” value [2] was “up to 4.46 ng/mL” and the “CL/F, arithmetic mean ± SD” value ([2]; 5 mg) was 16.480 L/day. The “CL/F, arithmetic mean ± SD” value ([2]; 10 mg) was 20.747 L/day, the “Time of peak plasma concentration (Cmax), population PK/PD model estimate” value [3] was 1.39 days and the Vd/F (clinical; 5 mg) was 55.4 L. It also gave a half-life (clinical; 5 mg) of 3.04 days, a Vd/F (clinical; 10 mg) of 105 L and a half-life (clinical; 10 mg) of 3.18 days. The CL/F (clinical; 1 mg) was 12.2 mL/min, the CL/F (clinical; 5 mg) was 11.4 mL/min and the CL/F (clinical; 10 mg) was 14.4 mL/min.
